Measurements from article PMC11002875, “Linking triphenylphosphonium cation to a bicyclic hydroquinone improves their antiplatelet effect via the regulation of mitochondrial function” (Redox Biology, 2024).
Read-outs that look alike come from different tables or passages of the source.

Legend:
Assay type in all cases: cell-based, Human
[1] = system: Washed platelets; assay: Platelet aggregation in washed platelets (aggregometer); conditions: for IC50: Homo sapiens, Platelet
Description: (§1) Human platelet purification. The blood sample was obtained from voluntary donors (10 days without antiplatelet medication) who agreed to participate after signing informed consent (Scientific Ethics Committee of the University of Talca N° 04–2022). Briefly, blood anticoagulated with acid-citrate-dextrose (ACD) was obtained in a 4:1 v/v ratio. The sample was centrifuged for 12 min at 250 g to obtain platelet-rich plasma (PRP). Subsequently, the PRP was centrifuged for 8 min at 900 g to obtain the platelet pellet. The plasma supernatant was removed, and the platelets were resuspended in Tyrodes buffer without calcium plus ACD in a ratio of 5:1 v/v. The platelets were centrifuged once more for 8 min at 900 g and the pellet was resuspended in Tyrodes buffer without calcium. Finally, the platelets were counted (Mindray BC-3000 Plus hematology counter, Japan), adjusted to the desired concentration, and used within 3 h.
Platelet aggregation. Washed platelets (200-250 × 10^6 platelets/mL) were preincubated with 2 mM CaCl2 and then with the compounds under study for 5 min at 37 °C in the aggregometer (Agg RAM- Helena Biosciences). Aggregation was initiated with the agonists: collagen 2 μg/mL; convulxin 20 ng/mL; TRAP-6 (Thrombin receptor activator peptide 6) 5 μM; PMA (Phorbol myristate acetate) 100 nM or arachidonic acid 250 μg/mL. The aggregation curve was evaluated for 5 min at 37 °C in shaking at 1000 rpm.

[2] = system: platelets; assay: Oxygen consumption and extracellular acidification rate (Seahorse XFe24)
Description: as §1
Oxygen consumption and extracellular acidification rate. Oxygen consumption rate (OCR) and extracellular acidification rate (ECAR) were measured with a Seahorse XFe24 extracellular flux analyzer (Agilent, Santa Clara, CA, USA). Briefly, 100 μL of platelets washed in modified Tyrode-HEPES buffer were deposited (20–25 × 10^6 cells/well) and then centrifuged at 300 g for 10 min. Platelets were incubated with NP4 10 μM for 5 min, and then Tyrode's-HEPES buffer was removed and Seahorse medium (8.3 g/L DMEM, 1.85 g/L NaCl, 5 mM glucose, 1 mM pyruvate, 2 mM glutamine, 5 mM HEPES, pH 7.4) was added to a final volume of 600 μL [70]. OCR was measured before and after the sequential addition of 3 μg/mL collagen, 2.5 μM oligomycin, 1.4 μM FCCP, and 2 μM/2 μM antimycin A/rotenone. Non-mitochondrial OCR was subtracted from all measurements. Respiratory parameters obtained with Mito Stress Test (Supplementary Table 1) were calculated as follows: Baseline (baseline OCR), collagen (OCR after collagen addition), activation (collagen-basal), ATP-independent or proton leak (OCR resistant to oligomycin addition), ATP-linked respiration (basal-proton leak), maximum (OCR obtained after addition of FCCP), and spare (maximal-basal), coupling efficiency (OCR Basal – OCR ATP-indep)/OCR Basal). Respiratory parameters were calculated according to Refs. [66, 70, 73].

[3] = system: Washed platelets; assay: Mitochondrial ROS (mtROS) levels (MitoSOX)
Description: as §1
Mitochondrial ROS (mtROS) Levels. The MitoSOX probe was used to identify mitochondrial ROS production specifically. Washed platelets (50 × 10^6 platelets/mL) were labeled with the MitoSOX® Red probe (Invitrogen, Carlsbad, CA, USA) 10 μM and incubated for 20 min at 37 °C protected from light. After, compounds (1, 5, and 10 μM) were added to the platelets and incubated for 10 min at 37 °C. […]

SMILES: Cc1c(C)c(O)c2c(c1O)C(=O)C(CCCC[P+](c1ccccc1)(c1ccccc1)c1ccccc1)=CC2(C)C.[Br-] [NP4, (4-(5,8-dihydroxy-4,4,6,7-tetramethyl-1-oxo-1,4-dihydronaphthalen-2-yl)butyl)triphenyl phosphonium bromide]
- IC50 ([1]; read-out: IC50 for platelet aggregation, Convulxin): 4.45 ± 0.65 µM
- IC50 ([1]; PMA 100 nM, washed platelets, read-out: IC50 for platelet aggregation, PMA): > 20 µM
- IC50 ([1]; TRAP-6 5 μM, washed platelets, read-out: IC50 for platelet aggregation, TRAP-6): 7.4 ± 0.82 µM
- IC50 ([1]; arachidonic acid 250 μg/mL, washed platelets, read-out: IC50 for platelet aggregation, Arachidonic Acid): > 20 µM
- IC50 ([1]; collagen 2 μg/mL, washed platelets, read-out: IC50 for platelet aggregation, Collagen): 2.62 ± 0.91 µM
- Effect on platelet aggregation vs vehicle ([1]; all tested concentrations, arachidonic acid 250 μg/mL): None of the NP4 concentrations showed any effect
- Effect on platelet aggregation vs vehicle ([1]; compound 2 μM, collagen 2 μg/mL): significant effect
- Effect on platelet aggregation vs vehicle ([1]; compound 5 μM, Convulxin 20 ng/mL): had an effect
- Effect on platelet aggregation vs vehicle ([1]; compound 5 μM, TRAP-6 5 μM): had an effect
- Effect on platelet aggregation vs vehicle ([1]; compound 5 μM, collagen 2 μg/mL): had an effect
- Effect on platelet aggregation vs vehicle ([1]; compound 10 μM, Convulxin 20 ng/mL): significantly decreases
- Effect on platelet aggregation vs vehicle ([1]; compound 10 μM, PMA 100 nM): significantly decreases
- Effect on platelet aggregation vs vehicle ([1]; compound 10 μM, TRAP-6 5 μM): significantly decreases
- Effect on platelet aggregation vs vehicle ([1]; compound 10 μM, collagen 2 μg/mL): significantly decreases
- ATP-dep (OCRBasal – OCRATP-indep) ([2]; 10 µM): 0,2 ± 0,22
- Activation (OCRCollagen – OCRBasal) ([2]; 10 µM): 0,15 ± 0,14
- Coupling efficiency ((OCRBasal – OCRATP-indep)/OCRBasal) ([2]; 10 µM): 0,095 ± 0,075
- Spare (OCRMaximum – OCRBasal) ([2]; 10 µM): 1,03 ± 0,29
- Basal (OCR/10^6 platelets) ([2]; 10 µM, Seahorse Mito Stress Test): 1,33 ± 0,69 OCR/10^6 platelets
- Maximum (OCR/10^6 platelets) ([2]; 10 µM, after 1.4 μM FCCP): 2,28 ± 0,45 OCR/10^6 platelets
- Collagen (OCR/10^6 platelets) ([2]; 10 µM, after 3 μg/mL collagen): 1,29 ± 0,48 OCR/10^6 platelets
- Non-mito (OCR/10^6 platelets) ([2]; 10 µM, after antimycin A/rotenone): 0,04 ± 0,08 OCR/10^6 platelets
- ATP-indep (OCR/10^6 platelets) ([2]; 10 µM, proton leak, after 2.5 μM oligomycin): 1,69 ± 0,47 OCR/10^6 platelets
- Basal extracellular acidification of the media ([2]; non-activated platelets, NP4 10 μM, control 87.5 ± 10.6): 133.9 ± 14.1 mpH/min/10^6 platelets
- mtROS generation ([3]; 10 μM, MitoSOX, 10 min): able to increase
- Dependence of depolarizing and antiplatelet effect on mtROS ([3]; MitoTempol 1 µM added first, then NP4 10 µM): independent of mitochondrial ROS levels
